Patent US20060205688A1, “Method of modulating epithelial cell activity by modulating the functional levels of sphingosine kinase” (priority 2002, published 2006)
“Also recorded” adds a separate entry of the source. Like-named read-outs stand apart in the source and are kept apart here.

Legend:
Assay type in all cases: cell-based, human
HUVEC = test: Cell survival in serum-free medium (MTS); set-up: effect of inhibitor on cell survival of control cells: dose or concentration left out as unconfirmed
Description: Endothelial cells were plated into gelatin coated 96 well microtitre trays at 3×10^3 cells per well in serum-free medium. MTS (Promega, WI, USA) was used to measure cell viability. Optical density at 490 nm was measured on Day 0, Day 1, Day 2, and Day 3.
Cell survival was measured in serum-free medium supplemented with ECGs and in non-tissue culture non-adhesive trays coated with 1% bovine serum albumin under serum free culture conditions.

PECAM-1 [1] = test: PECAM-1 expression (flow cytometry, Western blot); settings: normal HUVEC
Description: SDS-polyacrylamide gel electrophoresis was performed as described (Pitson S M, Moretti P A, Zebol J R, Xia P, Gamble J R, Vadas M A et al. (2000) J Biol Chem; 275(43):33945-33950) on cell lysates using 12% acrylamide gels. […] The membrane was incubated with horseradish peroxidase-conjugated anti-mouse IgG or anti-rabbit IgG (Pierce) and immunocomplexes were detected using enhanced chemiluminescence (Amersham Pharmacia Biotech).
Flow cytometric analysis of cell surface expression of PECAM-1 and VE-Cadherin was performed as previously described (Xia P, Gamble J R, Rye K A, Wang L, Hii C S, Cockerill P et al. (1998) supra) using 10 µg/ml mouse monoclonal primary antibodies to PECAM-1 (51-6F6) or VE-Cadherin (55-7H1) generated in our laboratory (Gamble J R, Khew-Goodall Y, Vadas M A. (1993) J Immunol; 150(10):4494-4503). […] The median fluorescence intensity was determined using a Coulter Epics Profile XL flow cytometer. FAC S analysis of the cell surface expression of CD34 was done by incubating 1×10^6 cells with […] of anti-CD34, R-phycoerythrin (R-PE)-conjugated mouse anti-human mAb (BD Pharmingen, San Diego, Calif.) for 30 minutes at room temperature, and then determining the median fluorescence intensity.

PECAM-1 [2] = test: PECAM-1 phosphorylation (Western blot); settings: data not shown
Description: SDS-polyacrylamide gel electrophoresis was performed as described (Pitson S M, Moretti P A, Zebol J R, Xia P, Gamble J R, Vadas M A et al. (2000) J Biol Chem; 275(43):33945-33950) on cell lysates using 12% acrylamide gels. Proteins were transferred to PVDF membranes, blocked in 5% low fat milk in PBS with 0.1% Tween20 for one hour, and incubated overnight at 4 C with M2 mouse anti-FLAG antibody (Sigma, St Louis, Mo.), rabbit polyclonal anti-phospho-Akt (Cell Signaling Technology), rabbit polyclonal anti-Akt (Cell Signaling Technology), anti-phosphotyrosine (Cell Signaling Technology), or for one hour at room temperature with mouse anti-cyclin D1 or cyclin E (Santa Cruz Biotechnology) or mouse monoclonal antibody directed to PECAM-1 (51-6F6) raised at The Hanson Institute, Adelaide, Australia. The membrane was incubated with horseradish peroxidase-conjugated anti-mouse IgG or anti-rabbit IgG (Pierce) and immunocomplexes were detected using enhanced chemiluminescence (Amersham Pharmacia Biotech).

VCAM-1 = VCAM-1 cell surface expression (FACS)
Description: (§1) Flow cytometric analysis of cell surface expression of E-Selectin and VCAM-1 was performed as previously described (11) using 10 μg/ml mouse monoclonal primary antibodies to E-Selectin (49-1B11) or VCAM-1 (51-10C9) generated in our laboratory (Gamble J R, Khew-Goodall Y, Vadas M A. (1993) supra). Secondary antibodies used were anti-mouse fluorescein-isothiocyanate, or for GFP-expressing cells, goat anti-mouse IgG R-phycoerythrin conjugate (Southern Biotech Birmingham, Ala., USA). The median fluorescence intensity was determined using a Coulter Epics Profile XL flow cytometer.

E-Selectin = test: E Selectin cell surface expression (FACS)
Description: as §1

[3] = 5 μM for four hours, SK and EV cells
[4] = pertussis toxin 50 ng/ml 18 hours, then TNFα 0.5 ng/ml four hours, control cells or SK cells
[5] = pertussis toxin 50 ng/ml, cells over-expressing SK or EV

COc1cccc(-c2cc(=O)c3ccccc3o2)c1N [PD98059]
effect of inhibitor on cell survival of control cells (HUVEC; EV cells, Day 2): significantly reduced cell survival

CCCCCCCCCCCCC/C=C/[C@@H](O)[C@@H](N)COP(=O)(O)O [S1P]
PECAM-1 expression after exogenous S1P (PECAM-1 [1]): did not induce PECAM-1 expression; also recorded: had no effect
PECAM-1 phosphorylation status after exogenous S1P (PECAM-1 [2]): had no effect
VCAM-1 expression after exogenous SIP (VCAM-1; [3]): up-regulation
E Selectin expression after exogenous SIP (E-Selectin; [3]): up-regulation

N#CC(=C(/N)Sc1ccccc1N)/C(C#N)=C(\N)Sc1ccccc1N [U0126]
effect of inhibitor on cell survival of control cells (HUVEC): significantly reduced cell survival

pertussis toxin
effect on SK-mediated cell survival (HUVEC; pertussis toxin 50 ng/ml, HUVEC over-expressing SK): not inhibited
effect of pretreatment on adhesion molecule response to exogenous SIP (VCAM-1; SK and EV cells, adhesion molecule (VCAM-1 / E Selectin) not specified): inhibited
effect of pre-treatment on TNFα-induced VCAM-1 expression (VCAM-1; [4]): did not alter
effect on basal or TNFα-induced VCAM-1 expression (VCAM-1; [5]): did not inhibit
effect of pre-treatment on TNFα-induced E Selectin expression (E-Selectin; [4]): did not alter
effect on basal or TNFα-induced E Selectin expression (E-Selectin; [5]): did not inhibit
